# Measured values reported in US10457655B2, “Compounds and compositions for inhibition of FASN” (FORMA Therapeutics, Inc., priority 2013, dated 2019).
# Where two headings read alike, the source gives them in different places.
# Biological target: FASN enzyme (Homo sapiens, UniProt P49327)
# Assay: Enzymatic Assay for FASN Inhibitors
# Format: biochemical
# In short: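 40 nM FASN preincubated with compound 60 min at 25° C in HEPES pH 7.3 buffer with 0.04% Triton X-100. Then 20 μM acetyl-CoA, 60 μM malonyl-CoA and 100 μM NADPH added for 90 min, quenched with CPM thiol probe; fluorescence 360/530 nm, IC50 by four-parameter fit.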
# [1] = FASN enzymatic assay, Table 2-2
# [2] = FASN enzymatic assay, Table 2-3
# FASN enzyme, sequence (P49327 whole entry): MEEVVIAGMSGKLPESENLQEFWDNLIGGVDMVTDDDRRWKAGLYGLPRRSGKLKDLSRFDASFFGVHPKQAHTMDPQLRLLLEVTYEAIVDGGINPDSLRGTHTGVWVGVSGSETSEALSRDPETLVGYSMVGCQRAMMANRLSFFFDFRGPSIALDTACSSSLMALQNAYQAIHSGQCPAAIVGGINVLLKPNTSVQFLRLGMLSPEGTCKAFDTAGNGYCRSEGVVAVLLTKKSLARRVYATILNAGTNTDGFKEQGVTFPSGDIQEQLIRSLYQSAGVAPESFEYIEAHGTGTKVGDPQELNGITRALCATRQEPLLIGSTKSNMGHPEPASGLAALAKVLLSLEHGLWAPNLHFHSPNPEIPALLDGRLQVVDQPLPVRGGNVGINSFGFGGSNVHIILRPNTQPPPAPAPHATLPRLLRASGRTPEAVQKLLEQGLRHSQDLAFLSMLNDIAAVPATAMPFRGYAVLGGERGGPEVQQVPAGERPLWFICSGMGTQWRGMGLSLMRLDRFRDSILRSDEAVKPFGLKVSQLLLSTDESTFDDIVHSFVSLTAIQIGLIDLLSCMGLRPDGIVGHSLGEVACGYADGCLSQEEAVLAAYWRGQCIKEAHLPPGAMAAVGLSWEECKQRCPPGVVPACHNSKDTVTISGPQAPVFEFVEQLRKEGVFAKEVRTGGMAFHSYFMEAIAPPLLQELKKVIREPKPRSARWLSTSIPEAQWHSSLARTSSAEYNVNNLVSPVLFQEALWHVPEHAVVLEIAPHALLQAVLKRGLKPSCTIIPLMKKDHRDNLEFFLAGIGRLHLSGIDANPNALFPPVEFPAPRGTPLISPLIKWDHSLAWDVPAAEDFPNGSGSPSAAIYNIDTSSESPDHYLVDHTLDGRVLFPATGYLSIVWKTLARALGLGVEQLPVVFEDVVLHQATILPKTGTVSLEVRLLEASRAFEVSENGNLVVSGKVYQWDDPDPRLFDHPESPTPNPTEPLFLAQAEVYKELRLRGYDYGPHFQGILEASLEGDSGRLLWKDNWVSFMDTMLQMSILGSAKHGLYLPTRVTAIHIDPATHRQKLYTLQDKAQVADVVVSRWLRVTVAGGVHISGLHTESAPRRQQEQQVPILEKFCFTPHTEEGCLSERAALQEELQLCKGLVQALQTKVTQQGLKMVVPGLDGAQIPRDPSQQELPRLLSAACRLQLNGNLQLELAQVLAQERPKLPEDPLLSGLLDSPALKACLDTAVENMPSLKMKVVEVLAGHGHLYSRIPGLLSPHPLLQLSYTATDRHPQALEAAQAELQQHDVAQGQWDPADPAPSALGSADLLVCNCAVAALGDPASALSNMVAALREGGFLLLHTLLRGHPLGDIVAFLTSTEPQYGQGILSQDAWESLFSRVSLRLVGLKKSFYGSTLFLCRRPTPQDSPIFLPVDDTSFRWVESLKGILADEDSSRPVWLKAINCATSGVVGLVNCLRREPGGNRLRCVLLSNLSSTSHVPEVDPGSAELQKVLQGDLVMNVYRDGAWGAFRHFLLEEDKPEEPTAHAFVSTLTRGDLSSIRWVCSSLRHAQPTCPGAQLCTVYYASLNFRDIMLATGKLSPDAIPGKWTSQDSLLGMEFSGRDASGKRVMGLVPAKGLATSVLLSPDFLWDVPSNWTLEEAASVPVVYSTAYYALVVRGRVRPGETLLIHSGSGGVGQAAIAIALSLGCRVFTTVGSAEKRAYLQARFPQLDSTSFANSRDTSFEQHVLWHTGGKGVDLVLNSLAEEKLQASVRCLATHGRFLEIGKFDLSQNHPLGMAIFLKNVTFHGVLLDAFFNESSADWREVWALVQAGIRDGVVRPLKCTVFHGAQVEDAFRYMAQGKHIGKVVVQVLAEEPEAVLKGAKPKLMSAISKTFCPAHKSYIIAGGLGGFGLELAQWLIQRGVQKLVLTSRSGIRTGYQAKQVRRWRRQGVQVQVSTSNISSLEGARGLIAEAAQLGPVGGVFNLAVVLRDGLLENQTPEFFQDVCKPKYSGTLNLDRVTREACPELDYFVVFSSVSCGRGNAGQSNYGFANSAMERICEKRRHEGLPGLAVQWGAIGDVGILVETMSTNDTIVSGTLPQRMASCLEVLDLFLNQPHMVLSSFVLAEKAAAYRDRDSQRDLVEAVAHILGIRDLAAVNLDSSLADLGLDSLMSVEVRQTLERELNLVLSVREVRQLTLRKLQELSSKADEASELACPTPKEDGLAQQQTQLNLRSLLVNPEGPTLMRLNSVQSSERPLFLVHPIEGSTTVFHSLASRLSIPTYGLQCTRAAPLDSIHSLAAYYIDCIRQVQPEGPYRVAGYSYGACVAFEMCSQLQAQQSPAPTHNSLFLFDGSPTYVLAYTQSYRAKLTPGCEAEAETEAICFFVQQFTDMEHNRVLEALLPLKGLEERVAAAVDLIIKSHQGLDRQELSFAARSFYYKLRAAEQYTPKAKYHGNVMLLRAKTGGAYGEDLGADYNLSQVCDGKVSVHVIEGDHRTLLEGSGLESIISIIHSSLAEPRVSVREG
Structure (SMILES),IC50,further results
"CC1Cc2ccccc2N1c1ccc(C(=O)N2CCN(C(=O)C3(O)CC3)CC2)cc1 (stereo not drawn) [1-{4-[4-(2-methyl-2,3-dihydro-1H-indol-1-yl)benzoyl]piperazine-1-carbonyl}cyclopropan-1-ol]",< 500 nM,–
"Nc1noc2ccc(-c3ccc(C(=O)N4CCN(C(=O)C5(O)CC5)CC4)cc3)cc12 [1-{4-[4-(3-amino-1,2-benzoxazol-5-yl)benzoyl]piperazine-1-carbonyl}cyclopropan-1-ol]",< 500 nM,–
"Nc1noc2cc(-c3ccc(C(=O)N4CCN(C(=O)C5(O)CC5)CC4)cc3)ccc12 [1-{4-[4-(3-amino-1,2-benzoxazol-6-yl)benzoyl]piperazine-1-carbonyl}cyclopropan-1-ol]",< 500 nM,–
Nc1n[nH]c2ccc(-c3ccc(C(=O)N4CCN(C(=O)C5(O)CC5)CC4)cc3)cc12 [1-{4-[4-(3-amino-1H-indazol-5-yl)benzoyl]piperazine-1-carbonyl}cyclopropan-1-ol],< 500 nM,–
Nc1n[nH]c2cc(-c3ccc(C(=O)N4CCN(C(=O)C5(O)CC5)CC4)cc3)ccc12 [1-{4-[4-(3-amino-1H-indazol-6-yl)benzoyl]piperazine-1-carbonyl}cyclopropan-1-ol],< 500 nM,–
O=C(c1ccc(-c2ccc3c(C4CC4)n[nH]c3c2)cc1)N1CCN(C(=O)C2(O)CC2)CC1 [1-{4-[4-(3-cyclopropyl-1H-indazol-6-yl)benzoyl]piperazine-1-carbonyl}cyclopropan-1-ol],< 500 nM,–
"CC1Cc2ccccc2CN1c1ccc(C(=O)N2CCN(C(=O)C3(O)CC3)CC2)cc1 (stereo not drawn) [1-{4-[4-(3-methyl-1,2,3,4-tetrahydroisoquinolin-2-yl)benzoyl]piperazine-1-carbonyl}cyclopropan-1-ol]",< 500 nM,–
Cc1n[nH]c2cccc(-c3ccc(C(=O)N4CCN(C(=O)C5(O)CC5)CC4)cc3)c12 [1-{4-[4-(3-methyl-1H-indazol-4-yl)benzoyl]piperazine-1-carbonyl}cyclopropan-1-ol],< 500 nM,–
Cc1n[nH]c2cc(-c3ccc(C(=O)N4CCN(C(=O)C5(N)CC5)CC4)cc3)ccc12 [1-{4-[4-(3-methyl-1H-indazol-6-yl)benzoyl]piperazine-1-carbonyl}cyclopropan-1-amine],< 500 nM,–
Cc1n[nH]c2cc(-c3ccc(C(=O)N4CCN(C(=O)C5(O)CC5)CC4)cc3)ccc12 [1-{4-[4-(3-methyl-1H-indazol-6-yl)benzoyl]piperazine-1-carbonyl}cyclopropan-1-ol],< 500 nM,–
Cc1n[nH]c2c(-c3ccc(C(=O)N4CCN(C(=O)C5(O)CC5)CC4)cc3)cccc12 [1-{4-[4-(3-methyl-1H-indazol-7-yl)benzoyl]piperazine-1-carbonyl}cyclopropan-1-ol],< 500 nM,–
Cc1c2ccccc2nn1-c1ccc(C(=O)N2CCN(C(=O)C3(O)CC3)CC2)cc1 [1-{4-[4-(3-methyl-2H-indazol-2-yl)benzoyl]piperazine-1-carbonyl}cyclopropan-1-ol],< 500 nM,–
O=C(c1ccc(-c2ccc(Cl)cc2F)cc1F)N1CCN(C(=O)C2(O)CC2)CC1 [1-{4-[4-(4-chloro-2-fluorophenyl)-2-fluorobenzoyl]piperazine-1-carbonyl}cyclopropan-1-ol],< 500 nM,–
"CC1(C)CN(C(=O)C2(O)CC2)CCN1C(=O)c1ccc(-c2ccc(Cl)cc2F)cc1 [1-{4-[4-(4-chloro-2-fluorophenyl)benzoyl]-3,3-dimethylpiperazine-1-carbonyl}cyclopropan-1-ol]",< 500 nM,–
"O=C(c1ccc(-c2ccc(Cl)cc2F)cc1)N1CCN(C(=O)C2(O)CC2)CC12CC2 [1-{4-[4-(4-chloro-2-fluorophenyl)benzoyl]-4,7-diazaspiro[2.5]octane-7-carbonyl}cyclopropan-1-ol]",< 500 nM,–
"O=C(c1ccc(N2CCc3c(F)cccc32)cc1)N1CCN(C(=O)C2(O)CC2)CC1 [1-{4-[4-(4-fluoro-2,3-dihydro-1H-indol-1-yl)benzoyl]piperazine-1-carbonyl}cyclopropan-1-ol]",< 500 nM,–
CC(C)n1ncc2cc(-c3ccc(C(=O)N4CCN(C(=O)C5(O)CC5)CC4)cc3)ccc21 [1-{[4-({4-[1-(propan-2-yl)-1H-indazol-5-yl]phenyl}carbonyl)piperazin-1-yl]carbonyl}cyclopropan-1-ol],–,IC50 [1]: 500 to 5000 nM
"O=C(c1ccc(-c2ccc3nc(C(F)(F)F)cn3c2)cc1)N1CCN(C(=O)C2(O)CC2)CC1 [1-{[4-({4-[2-(trifluoromethyl)imidazo[1,2-a]pyridin-6-yl]phenyl}carbonyl)piperazin-1-yl]carbonyl}cyclopropan-1-ol]",–,IC50 [1]: 500 to 5000 nM
O=C(c1ccc(-c2cc(CO)ccc2Cl)cc1)N1CCN(C(=O)C2(O)CC2)CC1 [1-{[4-({4-[2-chloro-5-(hydroxymethyl)phenyl]phenyl}carbonyl)piperazin-1-yl]carbonyl}cyclopropan-1-ol],–,IC50 [2]: ≥ 5000 nM
O=C(c1ccc(-c2cc(C(F)(F)F)ccc2Cl)cc1)N1CCN(C(=O)C2(O)CC2)CC1 [1-{[4-({4-[2-chloro-5-(trifluoromethyl)phenyl]phenyl}carbonyl)piperazin-1-yl]carbonyl}cyclopropan-1-ol],–,IC50 [1]: 500 to 5000 nM
CC(C)Oc1cccc(-c2ccc(C(=O)N3CCN(C(=O)C4(O)CC4)CC3)cc2)c1F [1-{[4-({4-[2-fluoro-3-(propan-2-yloxy)phenyl]phenyl}carbonyl)piperazin-1-yl]carbonyl}cyclopropan-1-ol],–,IC50 [2]: ≥ 5000 nM
O=C(c1ccc(-c2cccc(OC(F)(F)F)c2F)cc1)N1CCN(C(=O)C2(O)CC2)CC1 [1-{[4-({4-[2-fluoro-3-(trifluoromethoxy)phenyl]phenyl}carbonyl)piperazin-1-yl]carbonyl}cyclopropan-1-ol],–,IC50 [1]: 500 to 5000 nM
O=C(c1ccc(-c2cccc(C(F)(F)F)c2F)cc1)N1CCN(C(=O)C2(O)CC2)CC1 [1-{[4-({4-[2-fluoro-3-(trifluoromethyl)phenyl]phenyl}carbonyl)piperazin-1-yl]carbonyl}cyclopropan-1-ol],–,IC50 [1]: 500 to 5000 nM
O=C(c1ccc(-c2cc(F)cc(C(F)(F)F)c2)cc1)N1CCN(C(=O)C2(O)CC2)CC1 [1-{[4-({4-[3-fluoro-5-(trifluoromethyl)phenyl]phenyl}carbonyl)piperazin-1-yl]carbonyl}cyclopropan-1-ol],–,IC50 [1]: 500 to 5000 nM
O=C(c1ccc(-c2ccc(Cl)cc2C(F)(F)F)cc1)N1CCN(C(=O)C2(O)CC2)CC1 [1-{[4-({4-[4-chloro-2-(trifluoromethyl)phenyl]phenyl}carbonyl)piperazin-1-yl]carbonyl}cyclopropan-1-ol],–,IC50 [1]: 500 to 5000 nM
O=C(c1ccc(-c2ccc(F)cc2C(F)(F)F)cc1)N1CCN(C(=O)C2(O)CC2)CC1 [1-{[4-({4-[4-fluoro-2-(trifluoromethyl)phenyl]phenyl}carbonyl)piperazin-1-yl]carbonyl}cyclopropan-1-ol],–,IC50 [1]: 500 to 5000 nM
CC(C)Oc1ccc(Cl)cc1-c1ccc(C(=O)N2CCN(C(=O)C3(O)CC3)CC2)cc1 [1-{[4-({4-[5-chloro-2-(propan-2-yloxy)phenyl]phenyl}carbonyl)piperazin-1-yl]carbonyl}cyclopropan-1-ol],–,IC50 [2]: ≥ 5000 nM

# The next lines start with results.
IC50,Structure (SMILES),further results
< 500 nM,"O=C(c1ccc(N2Cc3cccc(F)c3C2)cc1)N1CCN(C(=O)C2(O)CC2)CC1 [1-{4-[4-(4-fluoro-2,3-dihydro-1H-isoindol-2-yl)benzoyl]piperazine-1-carbonyl}cyclopropan-1-ol]",–
< 500 nM,NC1(C(=O)N2CCN(C(=O)c3ccc(-c4cc(Cl)ccc4F)cc3)CC2)CC1 [1-{4-[4-(5-chloro-2-fluorophenyl)benzoyl]piperazine-1-carbonyl}cyclopropan-1-amine],–
< 500 nM,"O=C(c1ccc(N2CCc3cc(F)ccc32)cc1)N1CCN(C(=O)C2(O)CC2)CC1 [1-{4-[4-(5-fluoro-2,3-dihydro-1H-indol-1-yl)benzoyl]piperazine-1-carbonyl}cyclopropan-1-ol]",–
< 500 nM,"O=C(c1ccc(N2Cc3ccc(F)cc3C2)cc1)N1CCN(C(=O)C2(O)CC2)CC1 [1-{4-[4-(5-fluoro-2,3-dihydro-1H-isoindol-2-yl)benzoyl]piperazine-1-carbonyl}cyclopropan-1-ol]",–
< 500 nM,"O=C(c1ccc(-c2nc3ccc(Cl)cc3o2)c(F)c1)N1CCN(C(=O)C2(O)CC2)CC1 [1-{4-[4-(6-chloro-1,3-benzoxazol-2-yl)-3-fluorobenzoyl]piperazine-1-carbonyl}cyclopropan-1-ol]",–
< 500 nM,"O=C(c1ccc(-c2nc3ccc(F)cc3o2)cc1)N1CCN(C(=O)C2(O)CC2)CC12CC2 [1-{4-[4-(6-fluoro-1,3-benzoxazol-2-yl)benzoyl]-4,7-diazaspiro[2.5]octane-7-carbonyl}cyclopropan-1-ol]",–
< 500 nM,"Cn1nnc2cc(-c3ccc(C(=O)N4CCN(C(=O)C5(O)CC5)CC4)cc3)c(F)cc21 [1-{4-[4-(6-fluoro-1-methyl-1H-1,2,3-benzotriazol-5-yl)benzoyl]piperazine-1-carbonyl}cyclopropan-1-ol]",–
< 500 nM,O=C(c1ccc(-c2ncc3cc(F)ccc3n2)cc1)N1CCN(C(=O)C2(O)CC2)CC1 [1-{4-[4-(6-fluoroquinazolin-2-yl)benzoyl]piperazine-1-carbonyl}cyclopropan-1-ol],–
< 500 nM,"COc1ccc2nc(-c3ccc(C(=O)N4CCN(C(=O)C5(O)CC5)CC4)cc3)oc2c1 [1-{4-[4-(6-methoxy-1,3-benzoxazol-2-yl)benzoyl]piperazine-1-carbonyl}cyclopropan-1-ol]",–
< 500 nM,O=C(c1ccc(-c2n[nH]c3c(F)cccc23)cc1)N1CCN(C(=O)C2(O)CC2)CC1 [1-{4-[4-(7-fluoro-1H-indazol-3-yl)benzoyl]piperazine-1-carbonyl}cyclopropan-1-ol],–
< 500 nM,"O=C(c1ccc(N2CCc3cccc(F)c32)cc1)N1CCN(C(=O)C2(O)CC2)CC1 [1-{4-[4-(7-fluoro-2,3-dihydro-1H-indol-1-yl)benzoyl]piperazine-1-carbonyl}cyclopropan-1-ol]",–
< 500 nM,"COc1ccc2c(c1)CN(c1ccc(C(=O)N3CCN(C(=O)C4(O)CC4)CC3)cc1)CC2 [1-{4-[4-(7-methoxy-1,2,3,4-tetrahydroisoquinolin-2-yl)benzoyl]piperazine-1-carbonyl}cyclopropan-1-ol]",–
